From US7235531B2, “Tachykinin-like polypeptides and use thereof” (Takeda Pharmaceutical Company, priority 1999, dated 2007)
No end group written: not given here.

Legend:
anesthetized rats = assay: Activity of ATT(35-45) on blood pressure in anesthetized rats; assay type: in vivo, Male Wistar rats; conditions: for decrease in blood pressure: left femoral vein (i.v.), n=4, mean±standard deviation
Procedure: The activity of ATT(35-45) on blood pressure in anesthetized rats was determined in the following manner. Male Wistar rats (weighing 300 to 400 g, by CLEA Japan Inc.) were anesthetized with thiobutabarbital sodium (100 mg/kg i.p.), a catheter (SP-55) for measuring blood pressure connected to a transducer was inserted into the left carotid artery, and a catheter (SP-35) for intravenous administration was inserted into the left femoral vein. The peptide was dissolved in physiological saline containing 0.05% BSA, and doses of 0.01, 0.1, and 1 nmol/kg were administered through the left femoral vein. The blood pressure was continuously recorded on a polygraph (NEC Sanei).

[1] = test system: guinea pig ileum specimens; assay: Contracting activity of ATT(35-45) on guinea pig ileum specimens; assay type: cell-based; conditions: 10^−10 M to 3×10^−7 M
Procedure: The horizontal axis in the figure represents the dose (M) of ATT(35-45), and the vertical axis represents the rate of contraction relative to the contraction of the guinea pig ileum specimens induced by 10^-6 M acetylcholine.
The contracting activity of ATT(35-45) on guinea pig ileum specimens was determined in the following manner. 13 to 15-week old male guinea pigs (std: Hartley) were exsanguinated, and the ileum was excised. The ileum was cut to a length of 1.5 cm to prepare specimens. The specimens were aerated with a gas mixture (95% O^2-5% CO2) while suspended in Tyrode's solution (137.9 mM NaCl, 2.7 mM KCl, 1.8 mM CaCl2, 0.5 mM MgCl2, 1.1 mM NaH2PO4, 11.9 mM NaHCO3, and 5.6 mM glucose) maintained at 37° C., and the isotonic contractions under a 0.5 g load were recorded. The peptide was administered cumulatively in the organ bath.

What does the source list for “TGKASQFFGLM-NH2 [ATT(35-45), Thr-Gly-Lys-Ala-Ser-Gln-Phe-Phe-Gly-Leu-Met-NH2]”?
decrease in blood pressure (anesthetized rats; 0.01 nmol/kg): 12.3±0.8 mmHg; decrease in blood pressure (anesthetized rats; 0.1 nmol/kg): 21.5±1.8 mmHg; decrease in blood pressure (anesthetized rats; 1 nmol/kg): 33.8±6.6 mmHg; effect on blood pressure (in words) (anesthetized rats; doses of 0.01, 0.1 and 1 nmol/kg i.v.): dose-dependent decreases in blood pressure; contraction of guinea pig ileum specimens (in words) [1]: concentration-dependent contraction; maximum contraction relative to the contraction induced with 10^−6 M acetylcholine ([1]; guinea pig ileum): about 90%
